Experimental data from patent publication US20230203043A1, “NOVEL IMIDAZOPYRAZINE DERIVATIVES” (Hoffmann-La Roche Inc., priority 2020, published 2023).
Structures can show the parent of a compound that is named as a salt. Where two headings read alike, the source gives them in different places.

Tested on: Acinetobacter baumannii ATCC17961
Assay: Antimicrobial susceptibility testing: 90% growth inhibitory concentration (IC90) determination in Iso-Sensitest broth, OD600 growth
Type: cell-based
In short: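 Twofold compound dilutions (e.g. 50 to 0.097 μM final) in Iso-Sensitest broth with ~5×10^(5) CFU/ml, 35±2 °C. OD600 read every 20 min over 16 h; IC90 from growth inhibition during logarithmic phase.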

[1] = Acinetobacter baumannii, ATCC17961, 16 h, strain ATCC 17961, OD600 growth over 16 h, read-out: A. baumannii ATCC 17961 IC90
[2] = Acinetobacter baumannii, ATCC17961, 16 h, read-out: A. baumannii ATCC 17961 IC90 (uM), strain ATCC 17961, OD600 growth over 16 h

Row | Structure (SMILES) | IC90 [1] | also measured
1 | N[C@@H]1CCN(C(=O)N2CCN(C(=O)c3ccc(Nc4nccn5c(-c6c[nH]nc6C(F)(F)F)cnc45)cc3Cl)CC2)C1 [Example 326, [4-[(3R)-3-aminopyrrolidine-1-carbonyl]piperazin-1-yl]-[2-chloro-4-[[3-[3-(trifluoromethyl)-1H-pyrazol-4-yl]imidazo[1,2-a]pyrazin-8-yl]amino]phenyl]methanone formate] |  | IC90 [2]: 0.135 µM
2 | NC1CC(C(=O)N2CCN(C(=O)c3ccc(Nc4nccn5c(-c6c[nH]nc6C(F)(F)F)cnc45)cc3Cl)CC2)C1 (stereo not drawn) [Example 327, [4-(3-aminocyclobutanecarbonyl)piperazin-1-yl]-[2-chloro-4-[[3-[3-(trifluoromethyl)-1H-pyrazol-4-yl]imidazo[1,2-a]pyrazin-8-yl]amino]phenyl]methanone formate] |  | IC90 [2]: 0.146 µM
3 | N[C@H]1CCN(C(=O)N2CCN(C(=O)c3ccc(Nc4nccn5c(-c6c[nH]nc6C(F)(F)F)cnc45)cc3Cl)CC2)C1 [Example 328, [4-[(3S)-3-aminopyrrolidine-1-carbonyl]piperazin-1-yl]-[2-chloro-4-[[3-[3-(trifluoromethyl)-1H-pyrazol-4-yl]imidazo[1,2-a]pyrazin-8-yl]amino]phenyl]methanone formate] |  | IC90 [2]: 0.157 µM
4 | CCc1cc(Nc2nccn3c(-c4cn(CC#N)nc4C(F)(F)F)cnc23)ccc1C(=O)NCCCCCN [Example 329, N-(5-aminopentyl)-4-[[3-[1-(cyanomethyl)-3-(trifluoromethyl)pyrazol-4-yl]imidazo[1,2-a]pyrazin-8-yl]amino]-2-ethylbenzamide] | 0.211 µM | 
5 | NC1CC(C(=O)N2CCN(C(=O)c3ccc(Nc4nccn5c(-c6c[nH]nc6C(F)(F)F)cnc45)cc3Cl)CC2)C1 (stereo not drawn) [Example 330, [4-(3-aminocyclobutanecarbonyl)piperazin-1-yl]-[2-chloro-4-[[3-[3-(trifluoromethyl)-1H-pyrazol-4-yl]imidazo[1,2-a]pyrazin-8-yl]amino]phenyl]methanone formate] |  | IC90 (read-out: A. baumannii ATCC 17961 IC90, strain ATCC 17961, OD600 growth over 16 h, formate): 0.275 µM
6 | Cc1cc(Nc2nccn3c(-c4c[nH]nc4C(F)(F)F)cnc23)ccc1C(=O)N1CCN(C(=O)[C@H](C)N)CC1 [Example 331, (2S)-2-amino-1-[4-[2-methyl-4-[[3-[3-(trifluoromethyl)-1H-pyrazol-4-yl]imidazo[1,2-a]pyrazin-8-yl]amino]benzoyl]piperazin-1-yl]propan-1-one] | 0.401 µM | 
7 | Cc1cc(Nc2nccn3c(-c4c[nH]nc4C(F)(F)F)cnc23)ccc1C(=O)N1CCN(C(=O)[C@@H]2CCNC2)CC1 [Example 332, [2-methyl-4-[[3-[3-(trifluoromethyl)-1H-pyrazol-4-yl]imidazo[1,2-a]pyrazin-8-yl]amino]phenyl]-[4-[(3R)-pyrrolidine-3-carbonyl]piperazin-1-yl]methanone] | 0.509 µM | 
8 | Cc1cc(Nc2nccn3c(-c4c[nH]nc4C(F)(F)F)cnc23)ccc1C(=O)N1CCN(C(=O)[C@H]2CCNC2)CC1 [Example 333, [2-methyl-4-[[3-[3-(trifluoromethyl)-1H-pyrazol-4-yl]imidazo[1,2-a]pyrazin-8-yl]amino]phenyl]-[4-[(3S)-pyrrolidine-3-carbonyl]piperazin-1-yl]methanone] | 0.695 µM | 
9 | Cc1cc(Nc2nccn3c(-c4c[nH]nc4C(F)(F)F)cnc23)ccc1C(=O)N1CCN(C(=O)[C@@H](C)N)CC1 [Example 334, (2R)-2-amino-1-[4-[2-methyl-4-[[3-[3-(trifluoromethyl)-1H-pyrazol-4-yl]imidazo[1,2-a]pyrazin-8-yl]amino]benzoyl]piperazin-1-yl]propan-1-one] | 0.782 µM | 
10 | C#CCn1cc(-c2cnc3c(Nc4ccc(C(=O)NC)c(CC)c4)nccn23)c(C(F)(F)F)n1 [Example 335, 2-ethyl-N-methyl-4-[[3-[1-prop-2-ynyl-3-(trifluoromethyl)pyrazol-4-yl]imidazo[1,2-a]pyrazin-8-yl]amino]benzamide] | 0.148 µM | 
11 | CCc1cc(Nc2nccn3c(-c4cn(CC(N)=O)nc4C(F)(F)F)cnc23)ccc1C(=O)NC [Example 339, 4-[[3-[1-(2-amino-2-oxoethyl)-3-(trifluoromethyl)pyrazol-4-yl]imidazo[1,2-a]pyrazin-8-yl]amino]-2-ethyl-N-methylbenzamide] | 2.49 µM | 
12 | N[C@H]1CC[C@@H](C(=O)N2CCN(C(=O)c3ccc(Nc4nccn5c(-c6c[nH]nc6C(F)(F)F)cnc45)cc3Cl)CC2)C1 [Example 340, [4-[(1R,3S)-3-aminocyclopentanecarbonyl]piperazin-1-yl]-[2-chloro-4-[[3-[3-(trifluoromethyl)-1H-pyrazol-4-yl]imidazo[1,2-a]pyrazin-8-yl]amino]phenyl]methanone formate] |  | IC90 [2]: 0.194 µM
13 | CCc1cc(Nc2nccn3c(-c4cn(CC#N)nc4C(F)(F)F)cnc23)ccc1C(=O)NC [Example 341, 4-[[3-[1-(cyanomethyl)-3-(trifluoromethyl)pyrazol-4-yl]imidazo[1,2-a]pyrazin-8-yl]amino]-2-ethyl-N-methylbenzamide] | 0.223 µM | 
14 | N[C@@H]1CC[C@H](C(=O)N2CCN(C(=O)c3ccc(Nc4nccn5c(-c6c[nH]nc6C(F)(F)F)cnc45)cc3Cl)CC2)C1 [Example 342, [4-[(1S,3R)-3-aminocyclopentanecarbonyl]piperazin-1-yl]-[2-chloro-4-[[3-[3-(trifluoromethyl)-1H-pyrazol-4-yl]imidazo[1,2-a]pyrazin-8-yl]amino]phenyl]methanone formate] |  | IC90 [2]: 0.228 µM
15 | CCc1cc(Nc2nccn3c(-c4cn(CCCC#N)nc4C(F)(F)F)cnc23)ccc1C(=O)NC [Example 343, 4-[[3-[1-(3-cyanopropyl)-3-(trifluoromethyl)pyrazol-4-yl]imidazo[1,2-a]pyrazin-8-yl]amino]-2-ethyl-N-methylbenzamide] | 0.546 µM | 
16 | NCCCC[C@H](N)C(=O)NCCCNC(=O)c1ccc(Nc2nccn3c(-c4c[nH]nc4C(F)(F)F)cnc23)cc1Cl [Example 345, 2-chloro-N-[3-[[(2S)-2,6-diaminohexanoyl]amino]propyl]-4-[[3-[3-(trifluoromethyl)-1H-pyrazol-4-yl]imidazo[1,2-a]pyrazin-8-yl]amino]benzamide foramate] |  | IC90 (strain ATCC 17961, OD600 growth over 16 h, read-out: A. baumannii ATCC 17961 IC90): 1.22 µM
17 | CCCn1cc(-c2cnc3c(Nc4ccc(C(=O)NCCOCCN)c(CC)c4)nccn23)c(C(F)F)n1 [Example 346, N-[2-(2-aminoethoxy)ethyl]-4-[[3-[3-(difluoromethyl)-1-propylpyrazol-4-yl]imidazo[1,2-a]pyrazin-8-yl]amino]-2-ethylbenzamide] | 0.164 µM | 
18 | CCc1cc(Nc2nccn3c(-c4cn(C)nc4C(F)F)cnc23)ccc1C(=O)NCCOCCN [Example 347, N-[2-(2-aminoethoxy)ethyl]-4-[[3-[3-(difluoromethyl)-1-methylpyrazol-4-yl]imidazo[1,2-a]pyrazin-8-yl]amino]-2-ethylbenzamide] | 1.67 µM | 
19 | CNC(=O)c1ccc(Nc2nccn3c(-c4cn(C5CNC5)nc4C(F)(F)F)cnc23)cc1Cl [Example 348, 4-[[3-[1-(azetidin-3-yl)-3-(trifluoromethyl)pyrazol-4-yl]imidazo[1,2-a]pyrazin-8-yl]amino]-2-chloro-N-methylbenzamide hydrochloride] | 1.55 µM | 

Further lines, with some results ahead:

Row | IC90 [1] | Structure (SMILES) | also measured
20 | 0.901 µM | C[C@H]1CN(C(=O)c2ccc(Nc3nccn4c(-c5c[nH]nc5C(F)(F)F)cnc34)cc2Cl)CCN1 [Example 321, [2-chloro-4-[[3-[3-(trifluoromethyl)-1H-pyrazol-4-yl]imidazo[1,2-a]pyrazin-8-yl]amino]phenyl]-[(3S)-3-methylpiperazin-1-yl]methanone] | 
21 | 0.97 µM | CN(CCN)C(=O)c1ccc(Nc2nccn3c(-c4c[nH]nc4C(F)(F)F)cnc23)cc1Cl [Example 322, N-(2-aminoethyl)-2-chloro-N-methyl-4-[[3-[3-(trifluoromethyl)-1H-pyrazol-4-yl]imidazo[1,2-a]pyrazin-8-yl]amino]benzamide] | 
22 | 1.05 µM | C[C@@H]1CN(C(=O)c2ccc(Nc3nccn4c(-c5c[nH]nc5C(F)(F)F)cnc34)cc2Cl)CCN1 [Example 323, [2-chloro-4-[[3-[3-(trifluoromethyl)-1H-pyrazol-4-yl]imidazo[1,2-a]pyrazin-8-yl]amino]phenyl]-[(3R)-3-methylpiperazin-1-yl]methanone] | 
23 | 1.23 µM | N[C@@H]1CCN(C(=O)c2ccc(Nc3nccn4c(-c5c[nH]nc5C(F)(F)F)cnc34)cc2Cl)C1 [Example 324, [(3R)-3-aminopyrrolidin-1-yl]-[2-chloro-4-[[3-[3-(trifluoromethyl)-1H-pyrazol-4-yl]imidazo[1,2-a]pyrazin-8-yl]amino]phenyl]methanone] | 
24 | 2.02 µM | C[C@H]1CNCCN1C(=O)c1ccc(Nc2nccn3c(-c4c[nH]nc4C(F)(F)F)cnc23)cc1Cl [Example 325, [2-chloro-4-[[3-[3-(trifluoromethyl)-1H-pyrazol-4-yl]imidazo[1,2-a]pyrazin-8-yl]amino]phenyl]-[(2S)-2-methylpiperazin-1-yl]methanone] | 
25 | 0.152 µM | CCc1cc(Nc2nccn3c(-c4c[nH]nc4C(F)(F)F)cnc23)ccc1C(=O)NCCCCCCN [Example 336, N-(6-aminohexyl)-2-ethyl-4-[[3-[3-(trifluoromethyl)-1H-pyrazol-4-yl]imidazo[1,2-a]pyrazin-8-yl]amino]benzamide hydrochloride] | 
26 | 0.691 µM | NCCC(=O)NCCCNC(=O)c1ccc(Nc2nccn3c(-c4c[nH]nc4C(F)(F)F)cnc23)cc1Cl [Example 338, N-[3-(3-aminopropanoylamino)propyl]-2-chloro-4-[[3-[3-(trifluoromethyl)-1H-pyrazol-4-yl]imidazo[1,2-a]pyrazin-8-yl]amino]benzamide hydrochloride] | 
27 | 0.572 µM | NCCCC(=O)NCCCNC(=O)c1ccc(Nc2nccn3c(-c4c[nH]nc4C(F)(F)F)cnc23)cc1Cl [Example 344, N-[3-(4-aminobutanoylamino)propyl]-2-chloro-4-[[3-[3-(trifluoromethyl)-1H-pyrazol-4-yl]imidazo[1,2-a]pyrazin-8-yl]amino]benzamide formate] | 
